Results from patent US20190010167A1, “INHIBITORS OF THE MENIN-MLL INTERACTION” (Vitae Pharmaceuticals, Inc., priority 2015, published 2019).

The compounds below were run against T1, wild-type menin / MLL-AF9 fusion protein (Homo sapiens, UniProt O00255) (assay: AlphaLISA menin/MLL binding assay, wild-type menin (Assay 1)). Conditions: biotinylated wild-type menin 5 nM, MLL-AF9-FLAG lysate.
T1 construct: made in house; host or cells: E. coli (menin); HEK293 cleared lysate (MLL-AF9-FLAG)
T1 sequence (O00255 1-610): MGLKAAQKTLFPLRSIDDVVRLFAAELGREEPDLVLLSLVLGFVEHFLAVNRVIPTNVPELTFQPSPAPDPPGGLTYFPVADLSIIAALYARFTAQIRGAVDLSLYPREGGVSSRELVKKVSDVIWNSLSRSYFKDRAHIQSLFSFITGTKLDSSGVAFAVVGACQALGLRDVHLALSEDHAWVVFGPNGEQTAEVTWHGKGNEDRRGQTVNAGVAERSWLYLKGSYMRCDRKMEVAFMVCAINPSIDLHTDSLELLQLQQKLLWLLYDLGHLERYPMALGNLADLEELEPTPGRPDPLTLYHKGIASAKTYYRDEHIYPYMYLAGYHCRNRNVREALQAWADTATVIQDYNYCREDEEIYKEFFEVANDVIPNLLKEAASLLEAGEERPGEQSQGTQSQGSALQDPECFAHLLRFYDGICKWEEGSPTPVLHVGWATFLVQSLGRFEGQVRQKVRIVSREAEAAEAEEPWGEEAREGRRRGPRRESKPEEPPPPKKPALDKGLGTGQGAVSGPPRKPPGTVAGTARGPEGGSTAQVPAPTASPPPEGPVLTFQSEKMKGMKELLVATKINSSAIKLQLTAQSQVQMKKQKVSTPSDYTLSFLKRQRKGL
Description: Potencies of inhibitor compounds against menin/MLL binding were assessed by AlphaLISA assay using biotinylated (1) wild-type menin or (2) mutated menin (described in Nature (2012) Vol. 482, pp. 542-548) and MLL-AF9 fusion protein bearing a FLAG epitope at its C-terminus. Menin proteins were expressed in E. coli and covalently modified with biotin using EZ-Link™ Sulfo-NHS-Biotin (ThermoFisher Cat. No. 21217) according to manufacturer's protocol. MLL1-1,396 fused to AF91-92 and the C-terminal FLAG peptide was expressed in HEK293 cells and used as a lysate cleared at 21,000×g for 10 min.
Compounds (2 μL of solutions in DMSO) were dispensed in white 96-well half-area plates (Corning Cat. No. 3693) and incubated for 30 min at RT with 5 nM biotinylated menin and appropriate amount of MLL-AF9-FLAG lysate in 40 μL of 50 mM Tris-HCl buffer pH 7.4 containing 5% (v/v) DMSO, 50 mM NaCl, 0.01% (w/v) bovine serum albumin (BSA) and 1 mM DTT. To this incubation mixture, 40 μl of AlphaLISA anti-FLAG acceptor (PerkinElmer Cat. No. AL112C) and streptavidin donor (PerkinElmer Cat. No. 6760002) beads (10 μg/mL each) was added and incubation continued at RT for 60 min. Alpha (amplified luminescent proximity homogeneous assay) signal was measured on an Envision multi-label plate reader at the end of the incubation. All steps were conducted under dim fluorescent light.
These percent inhibition values were regressed against compound concentrations in the assay using four parameter logit non-linear curve fitting (XLFit, IDBS). The IC50 values were derived from the curve fitting as inflection points on the dose-response curves and are set out in Table 1 below.

Structure (SMILES)	IC50
Cc1c(CN2CCC3(CCN(c4ncnc5sc(CC(F)(F)F)cc45)C3)C2)ccc2[nH]c(C#N)cc12 (racemic) [Example 30, 4-methyl-5-((7-(6-(2,2,2-trifluoroethyl)thieno[2,3-d]pyrimidin-4-yl)-2,7-diazaspiro[4.4]nonan-2-yl)methyl)-1H-indole-2-carbonitrile]	< 100 nM
CC(C)CN1CC2(CCN(c3ncnc4ccc(CC(F)(F)F)cc34)CC2)C1 [Example 89, 4-(2-isobutyl-2,7-diazaspiro[3.5]nonan-7-yl)-6-(2,2,2-trifluoroethyl) quinazoline]	≥ 1000 nM
FC(F)(F)Cc1ccc2ncnc(N3CC4(CN(CC5CCOCC5)C4)C3)c2c1 [Example 91, 4-(6-((tetrahydro-2H-pyran-4-yl)methyl)-2,6-diazaspiro[3.3]heptan-2-yl)-6-(2,2,2-trifluoroethyl)quinazoline]	≥ 1000 nM
CCC(C)CN1CCC2(C1)CN(c1ncnc3sc(CC(F)(F)F)cc13)C2 (centres unmarked) [Example 94, 4-(6-(2-methylbutyl)-2,6-diazaspiro[3.4]octan-2-yl)-6-(2,2,2-trifluoroethyl)thieno[2,3-d]pyrimidine]	100 to 1000 nM
FC(F)(F)Cc1cc2c(N3CC4(CCN(Cc5ccccc5)C4)C3)ncnc2s1 [Example 95, 4-(6-benzyl-2,6-diazaspiro[3.4]octan-2-yl)-6-(2,2,2-trifluoroethyl)thieno[2,3-d]pyrimidine]	≥ 1000 nM
CCC(C)CN1CCC2(CC1)CN(c1ncnc3sc(CC(F)(F)F)cc13)C2 (centres unmarked) [Example 100, 4-(7-(2-methylbutyl)-2,7-diazaspiro[3.5]nonan-2-yl)-6-(2,2,2-trifluoroethyl)thieno[2,3-d]pyrimidine]	100 to 1000 nM
CC(C)CN1CCC2(CC1)CN(c1ncnc3sc(CC(F)(F)F)cc13)C2 [Example 101, 4-(7-isobutyl-2,7-diazaspiro[3.5]nonan-2-yl)-6-(2,2,2-trifluoroethyl)thieno[2,3-d]pyrimidine]	100 to 1000 nM
FC(F)(F)Cc1cc2c(N3CC4(CCN(C[C@H]5CC[C@H](C(F)(F)F)CC5)CC4)C3)ncnc2s1 [Example 102, 6-(2,2,2-trifluoroethyl)-4-(7-(((1r,4r)-4-(trifluoromethyl)cyclohexyl)methyl)-2,7-diazaspiro[3.5]nonan-2-yl)thieno[2,3-d]pyrimidine]	100 to 1000 nM
CC(=O)Nc1ccc(CN2CCC3(CC2)CN(c2ncnc4sc(CC(F)(F)F)cc24)C3)cc1 [Example 103, N-(4-((2-(6-(2,2,2-trifluoroethyl)thieno[2,3-d]pyrimidin-4-yl)-2,7-diazaspiro[3.5]nonan-7-yl)methyl)phenyl)acetamide]	100 to 1000 nM
O=S1(=O)CCC(N2CCC3(CC2)CN(c2ncnc4sc(CC(F)(F)F)cc24)C3)CC1 [Example 104, 4-(2-(6-(2,2,2-trifluoroethyl)thieno[2,3-d]pyrimidin-4-yl)-2,7-diazaspiro[3.5]nonan-7-yl)tetrahydro-2H-thiopyran 1,1-dioxide]	100 to 1000 nM
CC(=O)N[C@H]1CC[C@H](CN2CCC3(CC2)CN(c2ncnc4sc(CC(F)(F)F)cc24)C3)CC1 [Example 105, N-((1r,4r)-4-((2-(6-(2,2,2-trifluoroethyl)thieno[2,3-d]pyrimidin-4-yl)-2,7-diazaspiro[3.5]nonan-7-yl)methyl)cyclohexyl)acetamide]	100 to 1000 nM
FC(F)(F)Cc1cc2c(N3CCC4(CN(Cc5ccccc5)C4)C3)ncnc2s1 [Example 111, 4-(2-benzyl-2,6-diazaspiro[3.4]octan-6-yl)-6-(2,2,2-trifluoroethyl)thieno[2,3-d]pyrimidine]	100 to 1000 nM
Cc1c(CN2CC3(CCN(c4ncnc5sc(CC(F)(F)F)cc45)C3)C2)ccc2[nH]c(C#N)cc12 [Example 112, 4-methyl-5-((6-(6-(2,2,2-trifluoroethyl)thieno[2,3-d]pyrimidin-4-yl)-2,6-diazaspiro[3.4]octan-2-yl)methyl)-1H-indole-2-carbonitrile]	100 to 1000 nM
CC(C)CN1CCC2(CC1)CCN(c1ncnc3sc(CC(F)(F)F)cc13)C2 [Example 113, 4-(8-isobutyl-2,8-diazaspiro[4.5]decan-2-yl)-6-(2,2,2-trifluoroethyl)thieno[2,3-d]pyrimidine]	100 to 1000 nM
CCC(C)CN1CCC2(CC1)CCN(c1ncnc3sc(CC(F)(F)F)cc13)C2 (centres unmarked) [Example 114, 4-(8-(2-methylbutyl)-2,8-diazaspiro[4.5]decan-2-yl)-6-(2,2,2-trifluoroethyl)thieno[2,3-d]pyrimidine]	100 to 1000 nM
FC(F)(F)Cc1cc2c(N3CCC4(CCN(CC5CCOCC5)CC4)C3)ncnc2s1 [Example 115, 4-(8-((tetrahydro-2H-pyran-4-yl)methyl)-2,8-diazaspiro[4.5]decan-2-yl)-6-(2,2,2-trifluoroethyl)thieno[2,3-d]pyrimidine]	100 to 1000 nM
FC(F)(F)Cc1cc2c(N3CCC4(CCN(Cc5ccccc5)CC4)C3)ncnc2s1 [Example 116, 4-(8-benzyl-2,8-diazaspiro[4.5]decan-2-yl)-6-(2,2,2-trifluoroethyl)thieno[2,3-d]pyrimidine]	≥ 1000 nM
Cc1c(CN2CCC3(CC2)CCN(c2ncnc4sc(CC(F)(F)F)cc24)C3)ccc2[nH]c(C#N)cc12 [Example 117, 4-methyl-5-((2-(6-(2,2,2-trifluoroethyl)thieno[2,3-d]pyrimidin-4-yl)-2,8-diazaspiro[4.5]decan-8-yl)methyl)-1H-indole-2-carbonitrile]	≥ 1000 nM
O=C1CC2(CCN(Cc3ccc4[nH]c(=O)[nH]c4c3)C2)CN1c1ncnc2sc(CC(F)(F)F)cc12 (centres unmarked) [Example 118, 7-((2-oxo-2,3-dihydro-1H-benzoldlimidazol-5-yl)methyl)-2-(6-(2,2,2-trifluoroethyl)thieno[2,3-d]pyrimidin-4-yl)-2,7-diazaspiro[4.4]nonan-3-one]	100 to 1000 nM

Each compound was assayed against T2, menin/MLL (Gal4-Menin and MLL1-46-VP16) in HEK293 cells (Homo sapiens, UniProt O00255) (assay: Mammalian cellular two-hybrid assay in HEK293 cells (Assay 2, cell assay)). Conditions: Gal4-Menin/MLL1-46-VP16 two-hybrid, NanoLuc luciferase reporter, 16-18 h.
T2 construct: expressed in transfected cells; host or cells: HEK293 (ATCC)
T2 sequence (P04386 1-147 partner limits assumed, species assumed, one chain of several): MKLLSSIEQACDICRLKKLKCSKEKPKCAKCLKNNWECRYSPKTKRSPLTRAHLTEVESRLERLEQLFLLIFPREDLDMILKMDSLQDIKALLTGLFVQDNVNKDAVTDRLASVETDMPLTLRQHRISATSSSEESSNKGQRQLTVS
Assay type: cell-based
Description: Potencies of inhibitor compounds against menin/MLL were tested in a mammalian cellular two-hybrid assay system. HEK293 cells (American Type Culture Collection (ATCC); Manassas, Va.) were co-transfected with three plasmids: one encoding Gal4-Menin (200 ng per 10^6 cells), another encoding MLL1-46-VP16 (100 ng per 10^6 cells), and a reporter plasmid pNL3.3-4×UAS (500 ng per 10^6 cells) encoding secreted NanoLuc® luciferase (Promega) with the upstream 4×UAS repeats for Gal4 binding. Transfection was performed in Opti-MEM® media using Lipofectamine® LTX with Plus™ Reagent (ThermoFisher Scientific) according to manufacturer's protocol. Cells were incubated with transfection reagents at 37° C. 5% CO2 for 5-6 h, harvested by trypsinization and centrifugation at 300×g for 5 min and resuspended in Gibco® DMEM media (phenol red-free, no antibiotics) containing 10% delipidated fetal bovine serum (FBS) (ThermoFisher Scientific). Concentration of cells in the media was adjusted to 3.5×10^5 cells/ml, and 100 μl of the cell suspension was dispensed into each well of 96-well Costar™ black clear bottom cell culture plates (Fisher Scientific). Tested compounds were added as 100 μL of 2× solutions in the media. Final concentration of DMSO was 0.1% in all wells. The cells were incubated with tested compounds at 37° C. 5% CO2 for 16-18 h. At the end of the incubation, 40 μL of the conditioned media from each well was transferred into each well of 96-well Costar™ black half-area plates (Fisher Scientific), to which 40 μl of 2× reconstituted NanoGlo® luciferase assay reagent (Promega) was added and thoroughly mixed on a microshaker for 2-3 min. Remaining media in the culture plates was removed by emptying the wells and blotting the plates on filter paper. The cells were lysed with 1× CellTiter-Glo® Luminescent Cell Viability Assay reagent (Promega) for assessing toxicity of the tested compounds. Both, Nano-Glo® and CellTiter-Glo® luminescence intensities were measured on EnVision® multilabel plate reader (PerkinElmer). Percent inhibition values were calculated based on Nano-Glo® luciferase activity observed with the tested compounds vs. DMSO control and commercially available menin inhibitor MI-2-2 (4-(4-(5,5-Dimethyl-4,5-dihydrothiazol-2-yl)piperazin-1-yl)-6-(2,2,2-trifluoroethyl)thieno[2,3-d]pyrimidine) (EMD Millipore, Cat. No. 444825) incubated with cells at 5 μM. These percent inhibition values were regressed against compound concentrations in the assay using non-linear 4-parameter logit curve fitting (XLFit, IDBS). Half maximal inhibitory concentrations (IC50) were calculated as the parameters of the fit corresponding to the inflection points on semi-logarithmic dose-response curves.

Structure (SMILES)	IC50
Cc1c(CN2CCC3(CCN(c4ncnc5sc(CC(F)(F)F)cc45)C3)C2)ccc2[nH]c(C#N)cc12 (racemic) [Example 30, 4-methyl-5-((7-(6-(2,2,2-trifluoroethyl)thieno[2,3-d]pyrimidin-4-yl)-2,7-diazaspiro[4.4]nonan-2-yl)methyl)-1H-indole-2-carbonitrile]	< 100 nM
